Ten compounds from ChEMBL document CHEMBL5143517, “Discovery and radiosensitization research of ursolic acid derivatives as SENP1 inhibitors” (Eur J Med Chem, 2022) can be followed below.

The IC50 is the point on the concentration scale where inhibition reaches its midpoint.

Each structure is given as a SMILES string. Calls of active or inactive are those of the source. Bounds are passed on as bounds.

The target of data set [1] is T1, Sentrin-specific protease 1 (Homo sapiens, UniProt Q9P0U3).
T1 sequence (Q9P0U3 whole entry): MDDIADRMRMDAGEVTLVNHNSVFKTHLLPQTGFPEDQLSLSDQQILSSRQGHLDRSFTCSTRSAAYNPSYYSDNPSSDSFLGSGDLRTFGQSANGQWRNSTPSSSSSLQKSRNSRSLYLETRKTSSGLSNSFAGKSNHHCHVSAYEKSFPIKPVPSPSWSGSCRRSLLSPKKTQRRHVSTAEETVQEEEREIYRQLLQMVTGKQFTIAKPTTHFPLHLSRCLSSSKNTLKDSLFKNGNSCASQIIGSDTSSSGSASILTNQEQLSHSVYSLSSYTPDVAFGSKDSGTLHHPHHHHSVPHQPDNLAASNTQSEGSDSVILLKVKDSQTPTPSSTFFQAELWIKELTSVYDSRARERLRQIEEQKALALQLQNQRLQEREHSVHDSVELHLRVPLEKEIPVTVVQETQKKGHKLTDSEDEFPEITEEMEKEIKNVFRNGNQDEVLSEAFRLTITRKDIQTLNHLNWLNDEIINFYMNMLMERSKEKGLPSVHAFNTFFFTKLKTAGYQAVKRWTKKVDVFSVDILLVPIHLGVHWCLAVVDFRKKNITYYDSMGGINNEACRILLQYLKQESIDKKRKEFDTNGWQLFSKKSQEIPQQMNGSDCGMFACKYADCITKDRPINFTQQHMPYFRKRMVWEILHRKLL
In words: Inhibition of recombinant human SENP1 catalytic domain using RanGAP1 as substrate preincubated for 10 mins followed by substrate addition and measured after 30 mins by Western blot analysis. On the technique in general: A western blot detects proteins with antibodies after separation by electrophoresis.

Data set [2] relates to HeLa. Nature of the data set: Radiosensitizing activity against human HeLa cells assessed as reduction in cell survival fractions at 5 uM pretreated for 24 hrs followed by exposure to 4 to 8 Gy gamma irradiation and measured after 2 weeks by crystal violet staining based analysis. The format is functional.
Data set [3] concerns HeLa. In words: Radiosensitizing activity against human HeLa cells assessed as average lethal dose at 5 uM pretreated for 24 hrs followed by exposure to 2 to 8 Gy gamma irradiation and measured after 2 weeks by crystal violet staining based analysis (reference value: 1.47 Gy). The class given is functional.
Data set [4] concerns HeLa. In words: Radiosensitizing activity against human HeLa cells assessed as quasi-threshold dose at 5 uM pretreated for 24 hrs followed by exposure to 2 to 8 Gy gamma irradiation and measured after 2 weeks by crystal violet staining based analysis (reference value: 1.72 Gy). The format is functional.
Data set [5] concerns HeLa. In words: Radiosensitizing activity against human HeLa cells assessed as radiosensitization enhancement ratio at 5 uM pretreated for 24 hrs followed by exposure to 2 to 8 Gy gamma irradiation and measured after 2 weeks by crystal violet staining based analysis (reference value: 1). The class given is functional.
Data set [6] can be described thus: Cytotoxicity against human HeLa cells assessed as inhibition of cell growth incubated for 72 hrs by CCK-8 assay. The class given is toxicity, cell-based.

`C[C@H]1[C@H](C)CC[C@]2(C(=O)O)CC[C@]3(C)C(=CC[C@@H]4[C@@]5(C)CC[C@H](O)C(C)(C)[C@@H]5CC[C@]43C)[C@H]12` [URSOLIC ACID]: the concentration for half-maximal inhibition (IC50) in data set [1] was 2580 nM. The outcome in the data set with HeLa [2] was Active. The LD is 1.2 Gy in the data set with HeLa [3] and 1.77 Gy in the data set on HeLa [4]. Moreover, in the data set on HeLa [5], the Ratio worked out at 1.22.
With `C[C@H]1[C@H](C)CC[C@]2(C(=O)OCC(=O)O)CC[C@]3(C)C(=CC[C@@H]4[C@@]5(C)CC[C@H](O)C(C)(C)[C@@H]5CC[C@]43C)[C@H]12`, in data set [6], the concentration for half-maximal inhibition (IC50) at 72 h was greater than 20 µM. For the same compound, in the data set with HeLa [2], the result was Active. Also, the values for the LD in the data set on HeLa [3] and in the data set on HeLa [4] were 1.26 Gy and 2.07 Gy, respectively.
On to `CNC(=O)CNC(=O)[C@]12CC[C@@H](C)[C@H](C)[C@H]1C1=CC[C@@H]3[C@@]4(C)CC[C@H](O)C(C)(C)[C@@H]4CC[C@@]3(C)[C@]1(C)CC2`, for which the 50% inhibitory concentration (IC50) at 72 h in data set [6] is greater than 20 µM. Besides, the outcome with HeLa [2] was Active. The results for the LD in the data set on HeLa [3] and with HeLa [4] were 1.02 Gy and 1.92 Gy, respectively.
On to `C[C@H]1[C@H](C)CC[C@]2(C(=O)OCC(=O)OC(C)(C)C)CC[C@]3(C)C(=CC[C@@H]4[C@@]5(C)CC[C@H](O)C(C)(C)[C@@H]5CC[C@]43C)[C@H]12`, for which, in data set [6], the concentration for half-maximal inhibition (IC50) at 72 h is greater than 20 µM.
The same measure, in the same setting: under `C[C@H]1[C@H](C)CC[C@]2(C(=O)OCC(=O)NCCO)CC[C@]3(C)C(=CC[C@@H]4[C@@]5(C)CC[C@H](O)C(C)(C)[C@@H]5CC[C@]43C)[C@H]12` stands greater than 20 µM; under `COC(=O)COC(=O)[C@]12CC[C@@H](C)[C@H](C)[C@H]1C1=CC[C@@H]3[C@@]4(C)CC[C@H](O)C(C)(C)[C@@H]4CC[C@@]3(C)[C@]1(C)CC2` [3BETA-HYDROXY-URS-12-EN-28-METHYL ACETOACETATE], greater than 20 µM; under `CNC(=O)CN(C)C(=O)[C@]12CC[C@@H](C)[C@H](C)[C@H]1C1=CC[C@@H]3[C@@]4(C)CC[C@H](O)C(C)(C)[C@@H]4CC[C@@]3(C)[C@]1(C)CC2`, greater than 20 µM.
Still for that read-out and setting: under `C[C@H]1[C@H](C)CC[C@]2(C(=O)NCC(=O)NCC(O)CO)CC[C@]3(C)C(=CC[C@@H]4[C@@]5(C)CC[C@H](O)C(C)(C)[C@@H]5CC[C@]43C)[C@H]12` (stereo not given in full) stands greater than 20 µM.
With `CC(=O)O[C@H]1CC[C@]2(C)[C@H]3CC=C4[C@@H]5[C@@H](C)[C@H](C)CC[C@]5(C(=O)N[C@@H](C)c5ccccc5)CC[C@@]4(C)[C@]3(C)CC[C@H]2C1(C)C`, the IC50 at 72 h in data set [6] was greater than 20 µM.
Regarding `COC(=O)[C@@H]1CCCN1C(=O)[C@]12CC[C@@H](C)[C@H](C)[C@H]1C1=CC[C@@H]3[C@@]4(C)CC[C@H](OC(C)=O)C(C)(C)[C@@H]4CC[C@@]3(C)[C@]1(C)CC2`, in data set [6], the 50% inhibitory concentration (IC50) at 72 h is greater than 20 µM.
